Assay results: patent publication US9382230B2, “Methods and compositions for modulating Ire1, SRC and ABL activity” (The Regents of the University of California, priority 2008, dated 2016)

Legend:
yIre1 = biological target: T1, yIre1 (Saccharomyces cerevisiae, UniProt P32361); experiment: RNA cleavage-based yIre1 activation assay; format: biochemical, yeast; set-up: unit not given here; settings: 3 μM yIre1, stem loop RNA, 15 μM effector
T1 construct: GST (N); made in house; host or cells: E. coli BL21 CodonPlus (RIPL)
T1 sequence (P32361 with tags, fused parts or gaps limits assumed): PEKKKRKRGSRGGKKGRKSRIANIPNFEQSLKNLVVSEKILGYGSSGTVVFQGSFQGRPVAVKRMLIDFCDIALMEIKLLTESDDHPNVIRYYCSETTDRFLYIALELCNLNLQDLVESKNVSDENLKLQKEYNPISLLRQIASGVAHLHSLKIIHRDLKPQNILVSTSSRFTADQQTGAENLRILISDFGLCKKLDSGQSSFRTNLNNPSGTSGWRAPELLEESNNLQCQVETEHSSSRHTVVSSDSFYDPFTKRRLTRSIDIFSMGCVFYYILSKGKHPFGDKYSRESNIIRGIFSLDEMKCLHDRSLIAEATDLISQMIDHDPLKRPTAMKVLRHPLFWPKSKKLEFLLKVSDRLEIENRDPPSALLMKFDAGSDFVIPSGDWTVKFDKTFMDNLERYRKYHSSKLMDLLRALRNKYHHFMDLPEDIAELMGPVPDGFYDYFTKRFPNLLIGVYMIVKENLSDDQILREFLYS
Method: The RNase Cleavage Assay.
RNA cleavage reactions were conducted at 30° C. in buffer containing 20 mM HEPES (pH 7.5), 70 mM NaCl, 2 mM ADP (pH 7.0), 2 mM Mg(OAc)2, 5 mM DTT, 5% glycerol, less than 1 nM ^32p-labeled RNA substrate, and 3 nM-20 μM Ire1. Reaction solutions and buffers were designed using Biochem Lab Solutions 3.5. Reactions were prepared such that 1 μl of RNA was added to 9 μl of pre-warmed reaction mixture containing all components except RNA. Typically, 3-10 minute time courses were collected starting from 5 seconds for the first time point. At time intervals, 1 μl of solution was withdrawn from each reaction and mixed wish 6 μl stop solution containing 10 M urea, 0.1% SDS, 0.1 mM EDTA, 0.05% xylene cyanol, and 0.05% bromophenol blue. The samples were separated by a denaturing 10% PAGE and exposed on a phosphor storage screen. The screens were scanned on a Storm or a Typhoon instrument and quantified using ImageQuant 5.0 or GelQuant.NET 1.4 programs. The data were plotted and fit in SigmaPlot 6.0.
RNA cleavage can be used to assess yIre1 activation as shown by FIG. 20 and the table below (3 μM yIre1, stem loop RNA, 15 μM effector): […]

[1] = test system: Xbp-1 mRNA splicing (UPR activation through Ire1) in HEK293 cells; experiment: XBP-1 mRNA splicing by RT-PCR in HEK293 cells (UPR); format: cell-based, mammalian; settings: for % splicing mRNA XBP-I Average: Hek293 cells treated for 4 hrs, RT-PCR; for in vivo activation of Ire1: summary statement
Method: The effect of tunicamycin, SU11248, DJM2005, APY24, and APY29 on Ire1 activity was tested in mammalian cells using HEK293 cells as a model system. Cells were treated according to the methods described in Lin J H et al., Science 318:944 (2007). After treatment with the corresponding agents for the indicated time, Xbp-1 mRNA splicing was determined by RT-PCR. Unspliced (u) and spliced (s) Xbp1-mRNA products are indicated and serve as a measure of UPR activation through Ire1.
Exemplary compounds were assayed for their effect on UPR. Results are set forth in FIGS. 18-19 and in the table below.

[2] = test system: XBP1-GFP reporter in Hek293-FT cells; experiment: FACS on Hek293-FT cells transfected with XBP1-GFP reporter; format: cell-based; settings: treated for 24 hrs
Method: Exemplary compounds were assayed and the results are set froth in the table below.

Ire1 = experiment: Summary statement of Ire1 activation or inhibition (assay not specified)

| SMILES | RNA cleavage (yIre1 activation) (yIre1) | % splicing mRNA XBP-I Average ([1]; Tm 0.3 ug/ml + compound 2 μM) [%] | % splicing mRNA XBP-I Average ([1]; compound 2 μM) [%] | % splicing mRNA XBP-I Average ([1]; compound 10 μM) [%] | in vivo activation of Ire1 [1] | % fold induction to Control ([2]; Tm 0.3 ug/ml + compound 2 uM) [%] | Mean fluorescence ([2]; Tm 0.3 ug/ml + compound 2 uM) | % fold induction to Control ([2]; compound 2 uM) [%] | Mean fluorescence ([2]; compound 2 uM) | activation of Ire1 (Ire1) | inhibition of Ire1 (Ire1) |
| --- | --- | --- | --- | --- | --- | --- | --- | --- | --- | --- | --- |
| Cc1cc(Nc2cc(C3CC3)n[nH]2)nc(Nc2ccc(CC#N)cc2)n1 [APY69] | 0.06355 | 36 | 23 | 40 | significant in vivo activation | 16 | 2805 | 18 | 2864 | significant activation |  |
| OCCc1ccc(Nc2nccc(Nc3cc(C4CCCCC4)n[nH]3)n2)cc1 [APY33] | 0.00232 | 8 | 8 | 18 |  | 49 | 3613 | 16 | 2811 |  | significant inhibition |
| N#CCc1ccc(Nc2nccc(Nc3cc(C4CCCC4)n[nH]3)n2)cc1 [APY67] | 0.006034 | 21 | 20 | 66 |  | −6 | 2289 | −4 | 2326 | significant activation |  |
| N#CCc1ccc(Nc2nc(Nc3cc(C4CC4)n[nH]3)c3ccccc3n2)cc1 [APY65] | 0.005304 | 29 | 22 | 51 | significant in vivo activation |  |  |  |  | significant activation |  |
| N#CCc1ccc(Nc2nccc(Nc3cc(C4CCC4)n[nH]3)n2)cc1 [APY77] | 0.006479 | 37 | 21 | 37 |  | 9 | 2648 | 6 | 2570 | significant activation |  |
| Cc1cc(Nc2cc(C3CCCC3)n[nH]2)nc(Nc2ccc(CC#N)cc2)n1 [APY80] | 0.001022 | 9 | 12 | 28 |  |  |  |  |  |  | significant inhibition |
